According to patent US9975852B2, “Quinoline sulfonyl derivatives and uses thereof” (Health Sciences North Research Institute, priority 2013, dated 2018):

Tests used:
MDA-MB468 = test: SRB antiproliferative assay, MDA-MB468; type: cell-based, human; conditions: Homo sapiens
Experimental: Antiproliferative effects were determined by a sulforhodamine B (SRB) based protocol. For a typical screening experiment, 5,000-10,000 cells were inoculated into 100 μl medium per well of a 96-well microtiter plate as described previously. […] Some of the sample wells were fixed with 25 μl of 50% trichloroacetic acid (TCA) as a control of the cell population for each cell line at the time of drug addition (Tz). An aliquot of the frozen stock was thawed and diluted to the desired final maximum test-concentration with complete medium. Two to ten-fold serial dilutions were made to provide a total of seven drug concentrations (and a control [C]). Following addition of drugs, the culture plate was incubated for additional 48 h. Cells were fixed in situ by slowly adding 25 μl of ice-cold 50% (w/v) TCA (final concentration, 10% TCA), and were then incubated for 60 min at 4° C. The supernatant was discarded, and the plate was washed five times with tap water, followed by air-dry. 50 μl of SRB solution at 0.4% (w/v) in 1% acetic acid was added to each well, and the plate was incubated for >30 min at room temperature. Unbound SRB was removed by five washes with tap water, followed by air-drying. […] The relative growth rate (%) was calculated for each of the compound concentrations according to the following formula: (Ti−Tz)/(C−Tz)×100 In the formula, time zero (Tz), control growth (C), and OD for different concentration of tested compounds (Ti). The GI50 for each compound was obtained from a non-linear Sigmoidal dose-response (variable slope) curve which is fitted by GraphPad Prism™ v.4.03 software. Values were calculated for each of these parameters if the level of activity was reached. However, if the effect was not reached or was exceeded, the value for that parameter was expressed as greater or less than the maximum or minimum concentration tested. Flow Cytometry

HeLa S3 cells = test: Confocal microscopy of spindle poles, centrosomes and cytoskeleton, HeLa S3 cells; type: cell-based
From the text: All immunocytochemistry experiments were visualized by confocal microscopy using a Zeiss 510 Meta laser scanning microscope (Carl Zeiss) equipped with a 63× objective lens, unless otherwise specified herein. Three lasers were utilized for excitation with the following band pass filter settings used for detection: Argon 488 nm (band pass 505-530), HeNe 543 nm (long pass 560) and 633 nm (long pass 650). All images were captured and analyzed using LSM 510 software included with the microscope (LSM Image Examiner™, Carl Zeiss).
The synchronization at the G1/S border (more accurately at the beginning of S phase) was achieved by double thymidine block (DT). Briefly, exponentially growing cells are treated with 2.0 mM thymidine for 18 hours, followed by incubation for 11 hours in drug-free complete medium, by which time most cells are at mid-late G1 phase. The cells are then incubated for another 14 hours in 2.0 mM thymidine to arrest them at the G1/S border. To arrest cells at the G2/M phase, cells were maintained for 18 hours in complete medium containing nocodazole (50 ng/ml). Both these synchronization are reversible.
VR-23 caused the formation of multiple spindle poles during late G1 phase in HeLa S3 cells (FIG. 9). HeLa S3 cells were synchronized at G2/M by nocodazole (50 ng/ml, 18 hours), followed by incubation for 6 hours in drug-free medium (at which time they were at G1) (see, e.g., FIG. 8). Cells were then incubated in the absence (control) or presence of 5 μM VR-23 for additional 6 hours (see flow cytometry profile in FIG. 8). […] Note the presence of uneven cell sizes (arrows) which may have been generated as a result of nondisjuctional chromosome segregation during mitosis.
Exponentially growing HeLa S3 cells were treated with 5 μM VR-23 for 6 hours, fixed, stained with an antibody specific for α-tubulin and then examined by confocal fluorescent microscopy for changes to their cytoskeletal structure. Sham denotes that the sample was treated exactly the same as VR-23 sample, except that they were not exposed to VR-23. […] HeLa S3 cells were treated with 2 mM thymidine for 18 hours, followed by incubation for 11 hours in drug-free complete medium, by which time most cells were at mid-late G1 phase. The cells were then incubated for another 14 hours in 2.0 mM thymidine in the absence (control) or presence of 10 μM VR-23. Under these conditions, cells are trapped in the beginning of S phase by a second thymidine block. No centrosome was amplified in the control, while over 87% of VR-23 treated cells analyzed contained multiple centrosomes.
HeLa S3 cells synchronized at the G1/S border by DT treatment were released into cell cycle for 1-6 hours in the absence (control) (FIG. 13A) or presence (FIG. 13B) of VR-23, followed by confocal microscopy. Centrosome amplification was manifested by 3 hour post-DT, although supernumerary started to form by 2 hour post-DT (solid arrows). (Due to experimental variations, centrosome amplification is not visible by 2 hours in all instances). […] More than 70% of cells exposed to VR-23 for 12 hours during S-G2/M contained multiple centrosomes, compared to less than 4% in the control. At least 200 cells were counted for each sample, and each experiment was repeated at least three times.
HeLa S3 cells synchronized at G1/S by DT were released into normal medium for 6 hours (cells reached ˜G2/M), at which time they were exposed to VR-23 for additional 6 hours. Solid arrows denote spindle assembly complexes. […] Triple MTOC/Three-way-pull phenotype comprises usually more than 50-60% of the total population. The “No attachment” phenotype is usually observed when DNA is not completely condensed.

[1] = Organ weight and histology (liver, spleen, kidney, lung) of ATH490 mice
Experimental: All values are presented as mean±S.E.M. Analyses were performed using GraphPad Prism software (GraphPad Software). Comparison between the groups was made by p value determination using one-way ANOVA. A p value of <0.05 was considered to be statistically significant. […] Each organ weight (%) is normalized with total body weight (BW).
The H&E stained slides were taken with a 20× objective using a Zeiss EPI-fluorescent microscope (bright field). […] At least 10 fields for each slide (one slide per mouse, and 3 mice per group) were examined.
Images were taken with a 10× objective using a Zeiss EPI-fluorescent microscope. […] Drug administration was carried out as described in Table IX and in the Materials and Methods section herein with respect to Animal Studies.
The images of the H&E stained renal tissues were taken with a Zeiss EPI-fluorescent (bright field) microscope using a 10× objective.

[2] = VR-23 for 6 hours from 6 hours post-DT
[3] = VR-23 30 mg/kg, paclitaxel 20 mg/kg

O=[N+]([O-])c1ccc(S(=O)(=O)N2CCN(c3ccnc4cc(Cl)ccc34)CC2)c([N+](=O)[O-])c1 [Compound 1, 7-Chloro-4-(4-(2,4-dinitrophenylsulfonyl)piperazin-1-yl)quinoline]
IC50 (MDA-MB468; MDA-MB-468): 700 ± 100 nM
GI50 (MDA-MB468; MDA-MB-468, 48 h): 700 ± 100 nM
Cells with multiple spindle phenotype (HeLa S3 cells; 5 μM VR-23, 6 hours, late G1): 44.4%
Cytoskeletal formation (HeLa S3 cells; 5 μM VR-23 for 6 hours, α-tubulin staining): caused abnormal cytoskeletal formation
Cells containing multiple centrosomes (HeLa S3 cells; 10 μM VR-23 during second thymidine block, 14 hours): over 87%
Number of cells with multiple centrosomes (HeLa S3 cells; 3 hours post DT): 41 ± 11.8
Number of cells with multiple centrosomes (HeLa S3 cells; 6 hours post DT): 55.2 ± 16.7
Number of cells with multiple centrosomes (HeLa S3 cells; 12 hours post DT): 73.2 ± 1.0
Mitotic cells among 352 cells counted (HeLa S3 cells; [2]): 34.1%
Mitotic cells with abnormal chromosome segregation (HeLa S3 cells; [2]): 78.3%
Triple MTOC/Three-way-pull phenotype, share of total population (HeLa S3 cells; [2]): 50-60%
Cells containing multiple centrosomes (HeLa S3 cells; exposed to VR-23 for 12 hours during S-G2/M): More than 70%
Microscopic Changes (liver) ([1]; ATH490 mice, VR-23, 30 mg/week, Paclitaxel, 20 mg/week): Largely (>95% of cases) normal
Effects on vital organs by their weights ([1]; VR-23 30 mg/kg, 29 days post-treatment): did not cause any notable ill effects on vital organs
Mitotic index in the liver [1, 3]: did not cause an increase in mitotic index
Spleen histology (H&E) [1, 3]: did not cause any notable toxicity to the spleen
Kidney histology (H&E), nephrotoxicity ([1]; VR-23 30 mg/kg, paclitaxel 20 mg/kg, four weeks): did not cause any notable toxicity to the kidney
